From PMC12090182, “Repurposing of the RIPK1-Selective Benzo[1,4]oxazepin-4-one Scaffold for the Development of a Type III LIMK1/2 Inhibitor” (ACS Chemical Biology, 2025)
Where two headings read alike, the source gives them in different places.

How the values were obtained:
BRAF(V600E) [1] = target: T1, BRAF(V600E) (Homo sapiens, UniProt P15056, V600E); experiment: biochemical; assay type: binding; settings: 1000 nM, read-out: Percent Control
RET(M918T) = RET(M918T) (Homo sapiens, UniProt P07949, M918T); experiment: biochemical; assay type: binding; settings: 1000 nM, read-out: Percent Control
CSNK1A1L = CSNK1A1L (Homo sapiens, UniProt Q8N752); assay type: cell-based; settings: HEK-293T; 1 μM inhibitor, HEK293T cells
Procedure, shortened: (§1)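 Steps: FuGene HD/DNA complexation 30 min; HEK293T addition; 20 h expression; Tracer K10 plus 1 μM inhibitor; substrate; luminescence at 450 nm and 610 nm. Output is per-kinase occupancy.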

FES = FES (Homo sapiens, UniProt P07332); assay type: cell-based; settings: HEK-293T; 1 μM inhibitor, HEK293T cells
Procedure, shortened: as §1

EPHA1 = EPHA1 (Homo sapiens, UniProt P21709); assay type: cell-based; settings: HEK-293T; 1 μM inhibitor, HEK293T cells
Procedure, shortened: as §1

ERN1 = ERN1 (Homo sapiens, UniProt O75460); assay type: cell-based; settings: HEK-293T; 1 μM inhibitor, HEK293T cells
Procedure, shortened: as §1

SIK3 FL = SIK3 FL (Homo sapiens, UniProt Q9Y2K2); assay type: cell-based; settings: HEK-293T; 1 μM inhibitor, HEK293T cells
Procedure, shortened: as §1

INSR = INSR (Homo sapiens, UniProt P06213); assay type: cell-based; settings: HEK-293T; 1 μM inhibitor, HEK293T cells
Procedure, shortened: as §1

PRKX = PRKX (Homo sapiens, UniProt P51817); assay type: cell-based; settings: HEK-293T; 1 μM inhibitor, HEK293T cells
Procedure, shortened: as §1

FLT3 = FLT3 (Homo sapiens, UniProt P36888); assay type: cell-based; settings: HEK-293T; 1 μM inhibitor, HEK293T cells
Procedure, shortened: as §1

DYRK1A = DYRK1A (Homo sapiens, UniProt Q13627); assay type: cell-based; settings: HEK-293T; 1 μM inhibitor, HEK293T cells
Procedure, shortened: as §1

LRRK2(G2019S) = LRRK2(G2019S) (Homo sapiens, UniProt Q5S007, G2019S); experiment: biochemical; assay type: binding; settings: read-out: Percent Control
[2] = Pharmacokinetic screening in mice (IV and PO, cassette dosing); assay type: in vivo, mouse; settings: plasma
Protocol: Test compounds were administered intravenously (0.1 mg mL^–1/kg) or orally (1 mg/5 mL/kg) by cassette dosing to nonfasted mice. After administration, blood samples were collected and centrifuged to obtain the plasma fraction. The plasma samples were deproteinized followed by centrifugation. The compound concentrations in the supernatant were analyzed by LC/MS/MS.

ALK(L1196M) = ALK(L1196M) (Homo sapiens, UniProt Q9UM73, L1196M); experiment: biochemical; assay type: binding; settings: 1000 nM, read-out: Percent Control
KIT(V559D,T670I) = KIT(V559D,T670I) (Homo sapiens, UniProt P10721, T670I/V559D); experiment: biochemical; assay type: binding; settings: compound concentration 100 nM; Entrez KIT; read-out: Percent Control
FLT3(R834Q) = FLT3(R834Q) (Homo sapiens, UniProt P36888, R834Q); experiment: biochemical; assay type: binding; settings: 1000 nM, read-out: Percent Control
[3] = target: T2, EGFR(L747-E749del, A750P) (Homo sapiens, UniProt P00533, A750P/DEL747-749); experiment: biochemical; assay type: binding; settings: compound concentration 100 nM; Entrez EGFR; read-out: Percent Control
EGFR(L858R) = EGFR(L858R) (Homo sapiens, UniProt P00533, L858R); experiment: biochemical; assay type: binding; settings: compound concentration 100 nM; Entrez EGFR; read-out: Percent Control
BRPF1A = BRPF1A (Homo sapiens, UniProt P55201); experiment: DSF selectivity screening; assay type: binding; settings: 10 μM compound
[4] = target: ABL1(F317L)-phosphorylated (Homo sapiens, UniProt P00519, F317L); experiment: biochemical; assay type: binding; settings: compound concentration 100 nM; Entrez ABL1; read-out: Percent Control
[5] = target: ABL1(M351T)-phosphorylated (Homo sapiens, UniProt P00519, M351T); experiment: biochemical; assay type: binding; settings: compound concentration 100 nM; Entrez ABL1; read-out: Percent Control
[6] = target: T2, EGFR(L747-E749del, A750P); experiment: biochemical; assay type: binding; settings: read-out: Percent Control
BRAF(V600E) [7] = target: T1, BRAF(V600E); experiment: cell-based; settings: HEK-293T; 1 μM inhibitor, HEK293T cells
EGFR(L858R,T790M) = EGFR(L858R,T790M) (Homo sapiens, UniProt P00533, L858R/T790M); experiment: biochemical; assay type: binding; settings: compound concentration 100 nM; Entrez EGFR; read-out: Percent Control
RET(V804M) = RET(V804M) (Homo sapiens, UniProt P07949, V804M); experiment: biochemical; assay type: binding; settings: 1000 nM, read-out: Percent Control
FLT3(K663Q) = FLT3(K663Q) (Homo sapiens, UniProt P36888, K663Q); experiment: biochemical; assay type: binding; settings: 1000 nM, read-out: Percent Control

T1 sequence (P15056 whole entry V600E): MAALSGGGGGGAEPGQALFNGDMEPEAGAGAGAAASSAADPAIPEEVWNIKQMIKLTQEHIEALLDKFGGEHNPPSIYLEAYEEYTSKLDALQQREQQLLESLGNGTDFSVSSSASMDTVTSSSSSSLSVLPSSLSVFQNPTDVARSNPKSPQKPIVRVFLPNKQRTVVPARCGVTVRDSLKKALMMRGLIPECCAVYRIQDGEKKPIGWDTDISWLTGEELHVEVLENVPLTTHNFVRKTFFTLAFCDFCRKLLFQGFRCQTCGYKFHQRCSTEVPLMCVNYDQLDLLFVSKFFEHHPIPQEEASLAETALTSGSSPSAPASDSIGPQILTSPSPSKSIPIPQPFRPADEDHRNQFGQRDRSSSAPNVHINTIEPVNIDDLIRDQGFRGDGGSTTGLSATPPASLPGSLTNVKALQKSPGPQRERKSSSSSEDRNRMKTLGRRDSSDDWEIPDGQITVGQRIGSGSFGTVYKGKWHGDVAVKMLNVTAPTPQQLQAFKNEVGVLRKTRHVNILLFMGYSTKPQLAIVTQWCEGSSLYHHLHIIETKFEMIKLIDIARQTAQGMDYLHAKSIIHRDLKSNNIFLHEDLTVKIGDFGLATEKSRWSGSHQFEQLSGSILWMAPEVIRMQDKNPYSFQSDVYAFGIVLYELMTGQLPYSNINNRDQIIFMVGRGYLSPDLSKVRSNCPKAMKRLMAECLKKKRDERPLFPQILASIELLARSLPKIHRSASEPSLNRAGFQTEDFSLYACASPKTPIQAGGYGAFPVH
T2 sequence (P00533 other isoform, or with tags, fused parts or gaps DEL747-749/A750P): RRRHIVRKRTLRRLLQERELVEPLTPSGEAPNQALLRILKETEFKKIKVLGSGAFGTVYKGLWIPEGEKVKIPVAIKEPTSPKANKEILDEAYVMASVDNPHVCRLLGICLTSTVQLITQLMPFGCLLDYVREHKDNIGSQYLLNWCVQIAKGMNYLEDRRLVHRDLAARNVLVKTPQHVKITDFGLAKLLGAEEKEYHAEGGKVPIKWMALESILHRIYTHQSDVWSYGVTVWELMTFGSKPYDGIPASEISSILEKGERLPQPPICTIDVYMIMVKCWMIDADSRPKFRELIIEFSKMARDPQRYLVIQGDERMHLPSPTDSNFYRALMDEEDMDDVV
Chain of EGFR(L858R,T790M) (P00533 25-1210 T790M/L858R): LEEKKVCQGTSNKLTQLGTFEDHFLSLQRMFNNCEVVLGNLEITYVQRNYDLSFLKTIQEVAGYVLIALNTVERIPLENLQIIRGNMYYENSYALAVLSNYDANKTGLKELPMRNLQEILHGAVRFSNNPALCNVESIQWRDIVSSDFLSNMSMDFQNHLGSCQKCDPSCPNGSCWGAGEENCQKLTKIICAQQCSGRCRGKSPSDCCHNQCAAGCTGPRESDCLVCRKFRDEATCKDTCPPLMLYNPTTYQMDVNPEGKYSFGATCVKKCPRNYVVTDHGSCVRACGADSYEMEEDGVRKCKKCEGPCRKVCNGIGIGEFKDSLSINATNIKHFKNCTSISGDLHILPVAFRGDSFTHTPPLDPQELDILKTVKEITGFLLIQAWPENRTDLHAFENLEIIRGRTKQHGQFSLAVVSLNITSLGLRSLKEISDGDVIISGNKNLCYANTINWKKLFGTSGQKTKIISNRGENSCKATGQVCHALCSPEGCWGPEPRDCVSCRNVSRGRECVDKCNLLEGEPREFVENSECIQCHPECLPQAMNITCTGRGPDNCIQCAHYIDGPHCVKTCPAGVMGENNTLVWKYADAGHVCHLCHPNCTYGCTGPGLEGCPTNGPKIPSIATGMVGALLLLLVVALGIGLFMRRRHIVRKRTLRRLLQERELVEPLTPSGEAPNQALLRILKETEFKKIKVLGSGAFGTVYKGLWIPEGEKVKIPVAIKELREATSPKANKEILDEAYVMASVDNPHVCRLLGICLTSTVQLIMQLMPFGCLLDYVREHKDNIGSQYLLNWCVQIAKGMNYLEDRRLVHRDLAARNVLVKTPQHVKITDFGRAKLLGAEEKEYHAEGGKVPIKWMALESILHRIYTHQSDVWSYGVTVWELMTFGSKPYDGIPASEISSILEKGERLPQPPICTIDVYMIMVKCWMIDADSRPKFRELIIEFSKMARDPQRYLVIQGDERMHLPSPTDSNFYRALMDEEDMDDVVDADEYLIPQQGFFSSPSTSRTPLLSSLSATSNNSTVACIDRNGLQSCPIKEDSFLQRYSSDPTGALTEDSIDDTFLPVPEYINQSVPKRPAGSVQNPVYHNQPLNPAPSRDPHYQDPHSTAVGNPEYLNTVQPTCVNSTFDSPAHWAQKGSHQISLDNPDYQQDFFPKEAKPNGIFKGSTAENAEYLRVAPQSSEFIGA
Chain of RET(M918T) (P07949 29-1114 M918T): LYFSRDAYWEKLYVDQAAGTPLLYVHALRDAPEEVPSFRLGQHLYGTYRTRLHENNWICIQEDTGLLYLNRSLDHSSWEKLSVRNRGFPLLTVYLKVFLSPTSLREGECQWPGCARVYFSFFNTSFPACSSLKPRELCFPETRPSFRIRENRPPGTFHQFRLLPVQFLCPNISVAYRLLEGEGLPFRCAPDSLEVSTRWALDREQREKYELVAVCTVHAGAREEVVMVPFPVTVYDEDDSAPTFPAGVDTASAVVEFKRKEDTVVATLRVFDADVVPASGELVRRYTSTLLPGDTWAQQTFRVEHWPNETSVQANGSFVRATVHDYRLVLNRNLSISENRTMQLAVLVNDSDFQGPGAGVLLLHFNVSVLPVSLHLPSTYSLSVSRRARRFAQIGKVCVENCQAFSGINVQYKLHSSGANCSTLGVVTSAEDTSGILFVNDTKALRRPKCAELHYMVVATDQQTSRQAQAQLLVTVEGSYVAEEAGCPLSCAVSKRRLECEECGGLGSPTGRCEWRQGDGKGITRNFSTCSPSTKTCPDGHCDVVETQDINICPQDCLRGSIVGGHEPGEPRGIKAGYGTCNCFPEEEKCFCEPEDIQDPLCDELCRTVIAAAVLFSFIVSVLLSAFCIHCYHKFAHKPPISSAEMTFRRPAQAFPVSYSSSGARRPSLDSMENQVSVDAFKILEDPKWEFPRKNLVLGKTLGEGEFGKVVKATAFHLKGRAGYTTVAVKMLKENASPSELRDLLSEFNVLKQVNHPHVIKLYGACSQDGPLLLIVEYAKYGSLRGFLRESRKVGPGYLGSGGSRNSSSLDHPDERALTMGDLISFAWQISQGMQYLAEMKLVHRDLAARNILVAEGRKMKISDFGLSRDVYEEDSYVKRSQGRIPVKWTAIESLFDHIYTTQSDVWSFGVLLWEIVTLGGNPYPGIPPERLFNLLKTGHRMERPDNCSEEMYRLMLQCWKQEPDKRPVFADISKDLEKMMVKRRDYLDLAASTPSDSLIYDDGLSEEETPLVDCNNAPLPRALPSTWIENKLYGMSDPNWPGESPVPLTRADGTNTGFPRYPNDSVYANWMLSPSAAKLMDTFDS
Chain of SIK3 FL (Q9Y2K2 whole entry): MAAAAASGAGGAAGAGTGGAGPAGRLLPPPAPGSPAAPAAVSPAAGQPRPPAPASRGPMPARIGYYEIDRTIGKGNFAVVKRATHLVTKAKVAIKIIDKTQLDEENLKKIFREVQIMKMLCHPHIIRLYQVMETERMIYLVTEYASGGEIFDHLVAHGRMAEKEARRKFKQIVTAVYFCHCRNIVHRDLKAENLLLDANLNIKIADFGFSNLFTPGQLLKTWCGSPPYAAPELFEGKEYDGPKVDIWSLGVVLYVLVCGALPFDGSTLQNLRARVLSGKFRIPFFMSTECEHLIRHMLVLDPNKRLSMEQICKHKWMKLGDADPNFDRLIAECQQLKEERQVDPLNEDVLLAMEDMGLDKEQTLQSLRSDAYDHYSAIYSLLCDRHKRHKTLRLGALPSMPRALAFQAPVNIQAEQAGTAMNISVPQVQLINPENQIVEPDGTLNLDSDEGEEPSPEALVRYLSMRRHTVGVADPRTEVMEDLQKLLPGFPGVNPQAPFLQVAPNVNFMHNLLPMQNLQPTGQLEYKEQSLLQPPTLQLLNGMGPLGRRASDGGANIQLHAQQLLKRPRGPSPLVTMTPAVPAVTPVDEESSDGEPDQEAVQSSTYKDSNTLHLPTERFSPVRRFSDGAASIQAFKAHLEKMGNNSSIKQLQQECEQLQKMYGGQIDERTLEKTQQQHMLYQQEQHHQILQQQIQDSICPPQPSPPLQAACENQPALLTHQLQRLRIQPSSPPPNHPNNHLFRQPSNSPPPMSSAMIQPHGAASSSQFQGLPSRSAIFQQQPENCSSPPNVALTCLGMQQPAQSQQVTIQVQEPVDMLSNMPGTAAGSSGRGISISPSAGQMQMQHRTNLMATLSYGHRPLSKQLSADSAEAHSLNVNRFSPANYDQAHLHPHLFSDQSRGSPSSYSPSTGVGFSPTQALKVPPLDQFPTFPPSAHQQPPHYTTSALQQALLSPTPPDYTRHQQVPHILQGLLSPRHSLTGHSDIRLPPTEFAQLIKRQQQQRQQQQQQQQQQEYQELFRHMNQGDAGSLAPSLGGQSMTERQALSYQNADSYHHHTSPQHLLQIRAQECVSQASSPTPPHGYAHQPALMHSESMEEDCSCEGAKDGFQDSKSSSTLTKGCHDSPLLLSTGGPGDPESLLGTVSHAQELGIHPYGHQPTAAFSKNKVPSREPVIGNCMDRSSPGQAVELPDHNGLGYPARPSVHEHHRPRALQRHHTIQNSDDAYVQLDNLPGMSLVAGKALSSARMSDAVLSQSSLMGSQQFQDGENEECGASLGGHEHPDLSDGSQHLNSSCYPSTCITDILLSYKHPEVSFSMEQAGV
Chain of CSNK1A1L (Q8N752 whole entry): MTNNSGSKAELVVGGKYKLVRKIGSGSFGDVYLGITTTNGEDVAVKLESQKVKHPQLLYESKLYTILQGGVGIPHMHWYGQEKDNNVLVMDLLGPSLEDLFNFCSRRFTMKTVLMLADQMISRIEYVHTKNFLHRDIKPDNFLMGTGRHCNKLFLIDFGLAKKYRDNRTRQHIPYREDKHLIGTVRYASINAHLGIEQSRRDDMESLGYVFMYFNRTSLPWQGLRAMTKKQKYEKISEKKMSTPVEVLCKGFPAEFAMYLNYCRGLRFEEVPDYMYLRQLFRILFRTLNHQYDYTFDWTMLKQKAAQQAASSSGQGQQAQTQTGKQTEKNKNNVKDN
Chain of RET(V804M) (P07949 29-1114 V804M): as the sequence (P07949 29-1114 M918T) above, with V776M, T890M counted along it

SMILES: CN1C(=O)[C@@H](N2CCc3c(nn(Cc4ccccc4)c3C(N)=O)C2=O)COc2cc(Cl)ccc21 [Compound 10, (S)-2-benzyl-6-(8-chloro-5-methyl-4-oxo-2,3,4,5-tetrahydrobenzo[b][1,4]oxazepin-3-yl)-7-oxo-4,5,6,7-tetrahydro-2H-pyrazolo[3,4-c]pyridine-3-carboxamide]
- remaining activity at 1 µM (BRAF(V600E) [1]): 100%
- remaining activity at 1 µM (RET(M918T)): 96%
- receptor occupancy at 1 µM (CSNK1A1L): 10.7%
- receptor occupancy at 1 µM (FES): 3.15%
- receptor occupancy at 1 µM (EPHA1): 2.07%
- receptor occupancy at 1 µM (ERN1): -1.52%
- receptor occupancy at 1 µM (SIK3 FL): -5.87%
- receptor occupancy at 1 µM (INSR): 4.94%
- receptor occupancy at 1 µM (PRKX): 2.51%
- receptor occupancy at 1 µM (FLT3): -3.18%
- receptor occupancy at 1 µM (DYRK1A): -1.01%
- remaining activity at 1 µM (LRRK2(G2019S)): 86%
- AUC ([2]; 0.1 mg/kg, Mouse PK IV, 0.10 mg/kg, read-out: AUCiv): 94.7 ng·h/mL
- concentration at 5 min ([2]; 0.1 mg/kg, Mouse PK IV, 0.10 mg/kg, read-out: C5min): 44.5 ng/mL
- Cmax ([2]; Mouse PK PO, 1.0 mg/kg): 11.8 ng/mL
- Tmax ([2]; Mouse PK PO, 1.0 mg/kg): 30 min
- AUC ([2]; Mouse PK PO, 1.0 mg/kg, read-out: AUCpo): 30.9 ng·h/mL
- bioavailability ([2]; mouse, PO 1.0 mg/kg vs IV 0.10 mg/kg): 4%
- remaining activity at 1 µM (ALK(L1196M)): 90%
- remaining activity at 0.1 µM (KIT(V559D,T670I)): 92%
- remaining activity at 1 µM (FLT3(R834Q)): 92%
- remaining activity at 0.1 µM [3]: 100%
- remaining activity at 0.1 µM (EGFR(L858R)): 100%
- ΔTm at 10 µM (BRPF1A): -0.8 °C
- remaining activity at 0.1 µM [4]: 100%
- remaining activity at 0.1 µM [5]: 92%
- remaining activity at 1 µM [6]: 100%
- receptor occupancy at 1 µM (BRAF(V600E) [7]): -9.8%
- remaining activity at 0.1 µM (EGFR(L858R,T790M)): 100%
- remaining activity at 1 µM (RET(V804M)): 93%
- remaining activity at 1 µM (FLT3(K663Q)): 100%
